Data reported in US20230034660A1, “PEPTIDES THAT ENHANCE NMDA RECEPTOR FUNCTION AND USE THEREOF” (University of Pittsburgh - Of the Commonwealth System of …, priority 2019, published 2023).

Molecular target: T1, mouse ZnT-1 (Mus musculus, UniProt Q60738)
T1 construct: host or cells: HEK293
T1 sequence (Q60738 1-503): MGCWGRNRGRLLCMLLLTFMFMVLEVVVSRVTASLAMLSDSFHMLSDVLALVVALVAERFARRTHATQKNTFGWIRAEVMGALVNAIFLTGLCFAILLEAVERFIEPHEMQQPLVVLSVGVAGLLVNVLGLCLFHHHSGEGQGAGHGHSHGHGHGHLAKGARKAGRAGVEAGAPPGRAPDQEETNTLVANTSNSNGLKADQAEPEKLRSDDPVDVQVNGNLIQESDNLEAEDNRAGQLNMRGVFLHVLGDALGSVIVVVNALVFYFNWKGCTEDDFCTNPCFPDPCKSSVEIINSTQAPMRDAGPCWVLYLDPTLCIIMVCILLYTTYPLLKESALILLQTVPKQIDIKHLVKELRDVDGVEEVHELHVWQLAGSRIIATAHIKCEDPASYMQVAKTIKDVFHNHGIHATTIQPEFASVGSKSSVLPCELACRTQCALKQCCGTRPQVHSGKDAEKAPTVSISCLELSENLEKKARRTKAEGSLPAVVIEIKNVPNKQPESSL
Test: Zinc efflux assay (FluoZin-3) in ZnT1-transfected HEK293 cells
Format: cell-based
Conditions: ZnT1-expressing HEK293 cells, 3 μM overnight, N2AZ versus scN2AZ
Protocol: HEK293 cells were grown in Dulbecco's modified Eagle's medium (DMEM) containing: 100 units/ml penicillin, 0.1 mg/ml streptomycin, 2 mm glutamine, and 10% (v/v) fetal calf serum in a 5% CO2 humidified atmosphere at 37° C. To express ZnT1, HEK 293 cells were transfected with ZnT1 or empty plasmid (control) using CaPO4 precipitation. Briefly,1 μg mouse ZnT-1 (pCMV6:ZnT1 Gen Bank Q60738) or empty vector plasmid (pCMV6, Origene) was incubated with 2 M calcium chloride in HEPES buffered solution containing […] to generate a co-precipitate, this solution was then dispersed onto cultured cells for 6 hours. Twenty four hours later, cells were treated with the scN2AZ or N2AZ (3 μM ) overnight. […] Rates of initial decrease of the fluorescent signal following exposure to Zn^2+ were determined during a 100 second period. […] Fluorescence imaging measurements were acquired using Axon Imaging Workbench 5.2 (INDEC BioSystems) and analyzed using Excel and Prism GraphPad.
Next, it was examined whether N2AZ could modify ZnT1-dependent zinc transport. Following an intracellular zinc load, decreases in intracellular zinc levels were measured over time as a readout of zinc transport in HEK293 cells previously transfected with a plasmid encoding for ZnT1 or an empty vector. FluoZin-3 fluorescence was utilized to quantify intracellular zinc levels (Qin et al., 2009; Shusterman et al., 2014). […]

NDSYLRSSL [Peptide N2AZ]
rate of zinc efflux: not different
